Like-named read-outs stand apart in the source and are kept apart here.
How the values were obtained:
[1] = Phase I clinical evaluation; cited from earlier work
KB cells = experiment: In vitro potency (WST-8 cell viability assay), KB; assay type: cell-based; conditions: Homo sapiens, read-out: IC50 KB
Procedure: (§1) General Procedure Used: Samples of unconjugated free drug compounds or drug conjugates were added to 96-well flat bottomed tissue culture plates and titrated using serial dilutions to cover the desired molar range. Antigen positive (Ag^+) or Antigen negative (Ag^−) cells were added to the wells in specific cell densities in such a way that there were triplicate samples for each drug concentration for each corresponding cell line. The plates were then incubated at 37° C. in an atmosphere of 5% CO2 for 4-5 days depending on the cell line. COLO 205 (1,000 cells/well), Namalwa (3,000 cells/well), HEL 92.1.7 (3,000 cells/well)—4 days; RH30 (1,000 cells/well), HL60/QC (5,000 cells/well), Ramos (10,000 cells/well), KB (2,000 cells/well), BJAB (2,000 cells/well), NB4 (3,000 cells/well)—5 days, RPMI 8226 (8,000 cells/well)—6 days.
(§2) At the end of the incubation period cytotoxic potencies were then assessed using a WST-8 based cell viability assay and surviving cells were measured by developing with WST-8 (2-7 hours). The absorbance in each well was measured and the surviving fraction of cells at each concentration was plotted to reveal the cytotoxicity and/or antigen specificity (of the conjugates).
(§3) Using the general procedure described above, the cytotoxicity of the unconjugated free drug compounds was measured against seven cell lines: KB, a HeLa cell contaminant, HL60/QC, an acute myeloid leukemia cell line, Namalwa, a Burkitt lymphoma cell line, NB4, an acute promyelocytic leukemia cell line, HEL92.1.7, an erythroleukemia cell line, RPMI8226, a multiple myeloma cell line and BJAB, a B-cell leukemia cell line. […] The potency and specificity of the antibody-drug conjugates were measured against antigen-expressing cells, with and without the additions of an excess amount of blocking unconjugated antibody to show specificity of the killing effect. The MY9-6-drug conjugate was extremely potent towards three different antigen-expressing cells: HL60/ATCC, HL60/QC and NB-4, despite the very low antigen expression in NB4 cells. […] Similarly, the huFOLR1-drug conjugate was effective in killing antigen-expressing KB cells in a specific manner. Results are illustrated in FIGS. 25 and 26.

[2] = test system: HEL92.1.7, an erythroleukemia cell line; experiment: In vitro potency (WST-8 cell viability assay), HEL92.1.7; assay type: cell-based; conditions: Homo sapiens
Procedure: as §1, §2, §3

[3] = test system: NB4, an acute promyelocytic leukemia cell line; experiment: In vitro potency (WST-8 cell viability assay), NB4; assay type: cell-based; conditions: read-out: IC50 NB4
Procedure: as §1, §2, §3

[4] = test system: RPMI8226, a multiple myeloma cell line; experiment: In vitro potency (WST-8 cell viability assay), RPMI8226; assay type: cell-based; conditions: Homo sapiens
Procedure: as §1, §2, §3

[5] = test system: Namalwa, a Burkitt lymphoma cell line; experiment: In vitro potency (WST-8 cell viability assay), Namalwa; assay type: cell-based; conditions: read-out: IC50 Namalwa
Procedure: as §1, §2, §3

HL60/QC cells = experiment: In vitro potency (WST-8 cell viability assay), HL60/QC; assay type: cell-based, human
Procedure: as §1, §2, §3
To compare in vitro potency measurements for the subject conjugates prepared with and without imine reactive reagent, such as sodium bisulfite, huMy9-6-BMPS-1f, huMy9-6-sulfo-SPDB-1f, and huMy9-6-Drug 2 were prepared with and without sodium bisulfite using the in situ sulfonation method (wherein the respective compounds of the invention was first mixed with sodium bisulfite and a bifunctional crosslinker bearing a reactive group, then the reaction mixture, without further purification, was reacted with the huMy9-6 monoclonal antibody as the cell-binding agent). IC50s for the conjugates on HL60-QC cells are shown below.

[6] = test system: BJAB, a B-cell leukemia cell line; experiment: In vitro potency (WST-8 cell viability assay), BJAB; assay type: cell-based; conditions: Homo sapiens, read-out: IC50 BJAB
Procedure: as §1, §2, §3

HL60/QC tumors = experiment: In vivo efficacy in HL60/QC tumor bearing nude mice; conditions: HL60-QC tumor xenografts; for T/C %: ~20 μg/kg drug dose
Procedure: In this study, the anti-tumor activity of huMY9-6-SPDB-1f was investigated in female nude mice bearing HL60/QC tumors, a human acute myeloid leukemia model. HL60/QC tumor cells, 2×10^6 cells/mouse were subcutaneously inoculated at a volume of 0.1 mL/mouse in the area over the right shoulder of female athymic nude mice, 5 weeks of age. Eight days after tumor cell inoculation mice were randomized into groups (n=6 per group) by tumor volume. Treatment was initiated the day of randomization, and groups included a control group dosed with PBS (200 μL/injection), or a single treatment at various doses (5 to 100 μg/kg) of huMY9-6-SPDB-1f (50 μg/kg 1f dose corresponded to 2.5 mg/kg antibody dose). […] The minimum effective dose was estimated to be 20 μg/kg, which is about 35-fold lower that the maximum tolerated dose.
To compare in vivo efficacy of the subject conjugates prepared with or without an imine reactive group, huMy9-6-Drug 2 were formulated with or without 50 μM sodium bisulfite, and the conjugates were used to treat mice bearing HL60-QC tumor xenografts.

[7] = HEL 92.1.7, free drug, read-out: IC50 HEL92.1.7
[8] = RPMI-8226, free drug, read-out: IC50 RPMI8226
[9] = Homo sapiens, HL-60, free drug, read-out: IC50 HL60/QC

| Molecule | IC50 (KB cells; free drug) | IC50 [2, 7] | IC50 ([3]; free drug) | IC50 [4, 8] | IC50 ([5]; free drug) | IC50 (HL60/QC cells; [9]) | IC50 ([6]; free drug) | other results |
| --- | --- | --- | --- | --- | --- | --- | --- | --- |
| C=C1C[C@H]2C=Nc3cc(OCCCOc4cc5c(cc4OC)C(=O)N4CC(=C)C[C@H]4C=N5)c(OC)cc3C(=O)N2C1 [SJG-136] |  |  |  |  |  |  |  | maximum tolerated dose [1]: 45 μg/m^2 |
| COc1cc2c(cc1OCc1cccc(COc3cc4c(cc3OC)C(=O)N3c5ccccc5C[C@H]3C=N4)c1)N=C[C@@H]1Cc3ccccc3N1C2=O [Compound 29a] | 0.004 nM | 0.0031 nM | 0.0023 nM | 0.011 nM | 0.002 nM | 1 pM | 0.001 nM |  |
| COc1cc2c(cc1OCc1cccc(COc3cc4c(cc3OC)C(=O)N3c5ccccc5C[C@H]3CN4)c1)N=C[C@@H]1Cc3ccccc3N1C2=O [Compound 29b] | 0.007 nM | 0.007 nM | 0.007 nM | 0.005 nM | 0.003 nM | 6 pM | 0.003 nM |  |
| COc1cc2c(cc1OCc1cccc(COc3cc4c(cc3OC)C(=O)N3c5ccccc5C[C@H]3CN4)c1)NC[C@@H]1Cc3ccccc3N1C2=O [Compound 29c] |  |  |  |  |  |  |  | IC50 (KB cells): 0.057 nM; IC50 ([2]; HEL 92.1.7, read-out: IC50 HEL92.1.7): 0.027 nM; IC50 [3]: 0.023 nM; IC50 ([4]; RPMI-8226, read-out: IC50 RPMI8226): 0.16 nM; IC50 [5]: 0.013 nM; IC50 (HL60/QC cells; Homo sapiens, HL-60, read-out: IC50 HL60/QC): 30 pM; IC50 [6]: 0.015 nM |
| COCCOCCOCCN(CC(C)(C)S(C)=S)c1cc(COc2cc3c(cc2OC)C(=O)N2c4ccccc4C[C@H]2C=N3)cc(COc2cc3c(cc2OC)C(=O)N2c4ccccc4C[C@H]2CN3)c1 (stereo partly drawn) [Compound 1d] | 0.18 nM |  |  |  | 0.069 nM | 32 pM |  |  |
| COc1cc2c(cc1OCc1cc(COc3cc4c(cc3OC)C(=O)N3c5ccccc5C[C@H]3CN4)cc(CSCC(C)(C)SSC)c1)NC[C@@H]1Cc3ccccc3N1C2=O [Compound 27f] | 4.4 nM | 1.8 nM | 1.1 nM | > 3 nM |  | 1700 pM | 1 nM |  |
| COc1cc2c(cc1OCc1cc(COc3cc4c(cc3OC)C(=O)N3c5ccccc5C[C@H]3CN4)cc(CSCC(C)(C)SSC)c1)N=C[C@@H]1Cc3ccccc3N1C2=O [Compound 27e] | 0.39 nM | 0.2 nM | 0.13 nM | 0.24 nM |  | 90 pM | 0.12 nM |  |
| COc1cc2c(cc1OCc1cc(COc3cc4c(cc3OC)C(=O)N3c5ccccc5C[C@H]3C=N4)cc(CSCC(C)(C)SSC)c1)N=C[C@@H]1Cc3ccccc3N1C2=O [Compound 27d] | 0.23 nM | 0.14 nM | 0.039 nM | 0.07 nM |  | 50 pM | 0.04 nM |  |
| huMy9-6-Drug 2 (conjugate, chains of the INN, looked up, Drug 2 payload) VH: QVQLVESGGGVVQPGRSLRLSCAASGFTFSSFGMHWVRQAPGKGLEWVAYISSGSFTIYYADSVKGRFTISRDNSKNTLYLQMNSLRAEDTAVYYCARMRKGYAMDYWGQGTLVTVSS VL: DVVMTQSPLSLPVTLGQPASISCRSSQIIIHSDGNTYLEWFQQRPGQSPRRLIYKVSNRFSGVPDRFSGSGSGTDFTLKISRVEAEDVGVYYCFQGSHVPHTFGQGTKVEIK |  |  |  |  |  |  |  | Minimum effective dose (μg/kg drug) (HL60/QC tumors; conjugate formulated with 50 μM sodium bisulfite (+)): 19 μg/kg drug; Minimum effective dose (μg/kg drug) (HL60/QC tumors; conjugate formulated without 50 μM sodium bisulfite (−)): 18 μg/kg drug; T/C % (HL60/QC tumors; formulated with 50 μM sodium bisulfite (+)): 16%; T/C % (HL60/QC tumors; formulated without sodium bisulfite (−)): 20%; IC50 (HL60/QC cells; HL60-QC cells, antigen blocking with 1 μM unconjugated huMy9-6, conjugate prepared with NaHSO3 (+), read-out: IC50 (pM) huMy9-6 blocking): > 3000 pM; IC50 (HL60/QC cells; HL60-QC cells, antigen blocking with 1 μM unconjugated huMy9-6, conjugate prepared without NaHSO3 (−), read-out: IC50 (pM) huMy9-6 blocking): > 3000 pM; IC50 (HL60/QC cells; HL60-QC cells, conjugate prepared with NaHSO3 treatment (+), read-out: IC50): 6.8 pM; IC50 (HL60/QC cells; HL60-QC cells, conjugate prepared without NaHSO3 treatment (−), read-out: IC50): 16 pM |

Source: patent USRE49918E1, “Cytotoxic benzodiazepine derivatives” (priority 2011, dated 2024)
